Laboratory results as given in PubChem BioAssay AID1919014 (Molecular Pharmacology Branch, DTP, NCI, 2023).

Test system: NCI-H1341 complex spheroids, percent test/control
Experiment: Anticancer human tumor NCI-H1341 cell line growth inhibition [AhR];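 also: spheroids exposed to agents for seven days before readout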
Conditions: for IC50: curve of first compound; for viability, T/C: stronger effect = lower value
Procedure, shortened: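 Complex tumor spheroids co-cultured with HUVEC and human MSC stroma; AhR antagonists tested in combination with standard-of-care and investigational agents. Top concentration at or near clinical Cmax (else 10 microM), half-log dilutions; growth expressed as percent test/control.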

[1] = second compound 0.1 µM, first compound 0.0316 µM
[2] = second compound 0.1 µM, first compound 0.1 µM
[3] = second compound 0.1 µM, first compound 0.316 µM
[4] = second compound 0.1 µM, first compound 1 µM
[5] = second compound 0.1 µM, first compound 3.16 µM
[6] = second compound 0.1 µM, first compound 10 µM
[7] = second compound 0.316 µM, first compound 0.0316 µM
[8] = second compound 0.316 µM, first compound 0.1 µM
[9] = second compound 0.316 µM, first compound 0.316 µM
[10] = second compound 0.316 µM, first compound 1 µM
[11] = second compound 0.316 µM, first compound 3.16 µM
[12] = second compound 0.316 µM, first compound 10 µM
[13] = second compound 1 µM, first compound 0.0316 µM
[14] = second compound 1 µM, first compound 0.1 µM
[15] = second compound 1 µM, first compound 0.316 µM
[16] = second compound 1 µM, first compound 1 µM
[17] = second compound 1 µM, first compound 3.16 µM
[18] = second compound 1 µM, first compound 10 µM
[19] = second compound 3.16 µM, first compound 0.0316 µM
[20] = second compound 3.16 µM, first compound 0.1 µM
[21] = second compound 3.16 µM, first compound 0.316 µM
[22] = second compound 3.16 µM, first compound 1 µM
[23] = second compound 3.16 µM, first compound 3.16 µM
[24] = second compound 3.16 µM, first compound 10 µM
[25] = second compound 10 µM, first compound 0.0316 µM
[26] = second compound 10 µM, first compound 0.1 µM
[27] = second compound 10 µM, first compound 0.316 µM
[28] = second compound 10 µM, first compound 1 µM
[29] = second compound 10 µM, first compound 3.16 µM
[30] = second compound 10 µM, first compound 10 µM

IC50 (second compound 0.1 µM) [nM] | IC50 (second compound 0.316 µM) [nM] | IC50 (second compound 1 µM) [nM] | IC50 (second compound 3.16 µM) [nM] | IC50 (second compound 10 µM) [nM] | Compound | viability, T/C [1] [%] | viability, T/C [2] [%] | viability, T/C [3] [%] | viability, T/C [4] [%] | viability, T/C [5] [%] | viability, T/C [6] [%] | viability, T/C [7] [%] | viability, T/C [8] [%] | viability, T/C [9] [%] | viability, T/C [10] [%] | viability, T/C [11] [%] | viability, T/C [12] [%] | viability, T/C [13] [%] | viability, T/C [14] [%] | viability, T/C [15] [%] | further results
< 31.6 | < 31.6 | < 31.6 | < 31.6 | < 31.6 | Nc1ccn(C2OC(CO)C(O)C2(F)F)c(=O)n1 (stereo not given) + Cc1ccccc1N=Nc1ccc(NC(=O)c2ccnn2C)c(C)c1 | 33.4 | 38.5 | 43.6 | 34.7 | 32.5 | 34.7 | 40.3 | 38 | 34.7 | 39.6 | 31.6 | 38.5 | 43 | 42.7 | 35.5 | viability, T/C [16]: 32.3%; viability, T/C [17]: 31.1%; viability, T/C [18]: 35.3%; viability, T/C [19]: 45%; viability, T/C [20]: 38.5%; viability, T/C [21]: 38.7%; viability, T/C [22]: 32.3%; viability, T/C [23]: 36.9%; viability, T/C [24]: 32.5%; viability, T/C [25]: 44.2%; viability, T/C [26]: 40.4%; viability, T/C [27]: 41.4%; viability, T/C [28]: 34.9%; viability, T/C [29]: 29.7%; viability, T/C [30]: 39.3%
568 | 419 | 457 | 266 | 338 | O=C(C=Cc1cccc(S(=O)(=O)Nc2ccccc2)c1)NO + Cc1ccccc1N=Nc1ccc(NC(=O)c2ccnn2C)c(C)c1 | 95.4 | 95.6 | 75.8 | 24.8 | 5.9 | 0.79 | 94.8 | 91.9 | 54.7 | 26.2 | 5.71 | 0.82 | 84.3 | 94.1 | 60.3 | viability, T/C [16]: 23%; viability, T/C [17]: 6.42%; viability, T/C [18]: 0.59%; viability, T/C [19]: 77.1%; viability, T/C [20]: 62.2%; viability, T/C [21]: 49.9%; viability, T/C [22]: 25.4%; viability, T/C [23]: 8.47%; viability, T/C [24]: 0.58%; viability, T/C [25]: 59.1%; viability, T/C [26]: 55%; viability, T/C [27]: 53.5%; viability, T/C [28]: 29%; viability, T/C [29]: 10.8%; viability, T/C [30]: 1.49%
> 10000 | > 10000 | > 10000 | > 10000 | > 10000 | O=C(c1cc(Cc2n[nH]c(=O)c3ccccc23)ccc1F)N1CCN(C(=O)C2CC2)CC1 + Cc1ccccc1N=Nc1ccc(NC(=O)c2ccnn2C)c(C)c1 | 94 | 83.4 | 93.9 | 86.4 | 104 | 69.4 | 87.4 | 84.5 | 97.4 | 71.2 | 72.8 | 59.1 | 94.2 | 97.8 | 68.8 | viability, T/C [16]: 78.3%; viability, T/C [17]: 81.2%; viability, T/C [18]: 69.1%; viability, T/C [19]: 67.6%; viability, T/C [20]: 72.1%; viability, T/C [21]: 65.7%; viability, T/C [22]: 74%; viability, T/C [23]: 60.9%; viability, T/C [24]: 57.3%; viability, T/C [25]: 46.2%; viability, T/C [26]: 50.3%; viability, T/C [27]: 56.3%; viability, T/C [28]: 58.6%; viability, T/C [29]: 51.2%; viability, T/C [30]: 47.5%
